Data on five compounds can be found in PMC2010749, “Cytotoxic and clastogenic effects of soluble and insoluble compounds containing hexavalent and trivalent chromium” (British Journal of Cancer, 1981).

The test system of data set [1] is BHK 21 Syrian hamster fibroblast line. The experiment in a line: Cell growth of BHK cultures (DNA + RNA content), Cr compounds added directly to medium. It is filed as cell-based. As to conditions: 48 h in MEM.
Description: (§1) Cell growth and labelling.-The reduction in cell growth, based on the nucleic acid content (DNA + RNA) of treated cultures, and the inhibition of DNA, RNA and protein syn- thesis, based on the incorporation of labelled precursors, were determined, to evaluate the cytotoxic effects of Cr compounds in BHK cell cultures. […] Three to four thousand cells were then examined for each dose level and each time interval, and the mitotic index (the ratio of all mitoses to the total number of cells) and the frequencies of each mitotic phase (the ratios of cells in each phase to total mitoses) were determined. […] Chromium compounds and cell treatments.- The tested compounds of Cr(VI) and Cr(III) and their physico-chemical properties are listed in Table I. In many experiments in which most of them were highly insoluble or only partially soluble (see Tables I, IV, V), Cr compounds were directly suspended in the growth medium used for treatments. In the experiments on the induction of chromosome aberrations and SCE in CHO cells, almost complete solubilization was obtained in N HCI for Cr(III) compounds and 0-5N NaOH for Cr(VI) compounds, after which they were diluted with MEM to the final concentrations specified in Table IX. […] The cytotoxic and clastogenic effects were usually deter- mined just at the end of Cr treatments, but sometimes the treated cells were washed with HBSS and incubated with normal growth medium, so that the effects of Cr were deter- mined at different times after the end of treatment (see Fig. 3 and Table VII).
The test system is the same in data set [2]. Kind of data set: DNA, RNA and protein syntheses in BHK cells, Cr compounds added directly to medium. The note with it: 48 h in MEM. It is filed as cell-based.
Description: (§2) Cell growth and labelling.-The reduction in cell growth, based on the nucleic acid content (DNA + RNA) of treated cultures, and the inhibition of DNA, RNA and protein syn- thesis, based on the incorporation of labelled precursors, were determined, to evaluate the cytotoxic effects of Cr compounds in BHK cell cultures. […] Three to four thousand cells were then examined for each dose level and each time interval, and the mitotic index (the ratio of all mitoses to the total number of cells) and the frequencies of each mitotic phase (the ratios of cells in each phase to total mitoses) were determined. […] Chromium compounds and cell treatments.- The tested compounds of Cr(VI) and Cr(III) and their physico-chemical properties are listed in Table I. In many experiments in which most of them were highly insoluble or only partially soluble (see Tables I, IV, V), Cr compounds were directly suspended in the growth medium used for treatments. […] The cytotoxic and clastogenic effects were usually deter- mined just at the end of Cr treatments, but sometimes the treated cells were washed with HBSS and incubated with normal growth medium, so that the effects of Cr were deter- mined at different times after the end of treatment (see Fig. 3 and Table VII).
Data set [3] shares this test system. The experiment in a line: DNA, RNA and protein syntheses in BHK monolayers exposed to filtered medium preincubated with Cr compounds.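 Also: DNA, RNA and protein synthesis in BHK cultures assessed by incorporation of labelled precursors.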 It is filed as cell-based.
Description: as §2
For data set [4], the system named is CHO Chinese hamster fibroblast line. The experiment in a line: Cell growth of CHO cultures (DNA + RNA content). It is filed as cell-based. As to conditions: 32 h in MEM.
Description: as §2
Data set [5] deals with HEp-2 human epithelial-like line. As to conditions: 2 h exposure to medium preincubated 2 days with 0.5 mg/ml in presence of BHK cells.
Description: as §2
A short description of data set [6]: Solubility of chromium compounds (Table I).
Description: as §1
A further data set concerns rats. The note with it: s.c. in rats; 0% in the controls; ref Maltoni (1976); cited from earlier work.
The test system of the next data set is Salmonella. The note with it: ref Petrilli & De Flora (1978a,b) and De Flora (1981), cited from earlier work; for Mutagenicity in the plate test: dissolved in 0.5N NaOH.
The subject of data set [7] is bacteria and mammalian cells in culture. As to conditions: 1979, De Flora, 1981, cited from earlier work.
Where [8] appears, read: preincubated 48 h with 0.5 mg/ml, cells exposed 24 h.
[9] abbreviates: 0.5 mg/ml, preincubation 2 h, monolayers exposed 24 h.
Where [10] appears, read: 0.5 mg/ml, preincubation 1 d, monolayers exposed 24 h.
[11] abbreviates: 0.5 mg/ml, preincubation 2 d, monolayers exposed 24 h.
Setting [12] is: 0.5 mg/ml, preincubation 3 d, monolayers exposed 24 h.
The mark [13] stands for this setting: 0.5 mg/ml, preincubation 6 d, monolayers exposed 24 h.
Setting [14] is: preincubated 48 h with 0.15/0.05 mg/ml (one value for both), cells exposed 24 h.

Turning to `[Cl][Cr]([Cl])[Cl]` [Chromium chloride], the Cell growth in data set [1] (0.5 mg/ml) is listed as 100 % of controls. Besides, in [2] (0.5 mg/ml), the DNA synthesis is on record as 100 % of controls, the Protein synthesis was 100 % of controls and the RNA synthesis is 100 % of controls. Also, in data set [3] (setting [8]), the “DNA synthesis, preinc. in MEM” value is 100 % of controls; the “DNA synthesis, preinc. in MEM+BHK” value is 100 % of controls; the “Protein synthesis, preinc. in MEM” value is on record as 100 % of controls; the “Protein synthesis, preinc. in MEM+BHK” value is 100 % of controls. Moreover, in data set [3] (setting [8]), the “RNA synthesis, preinc. in MEM” value is listed as 100 % of controls and the “RNA synthesis, preinc. in MEM+BHK” value is 100 % of controls. In data set [4] (50 µg/ml), the Cell growth is recorded as 95 % control. Besides, in [5], the “Mitotic block (% increase of abnormal metaphases 2-4 h after treatment)” value is listed as “+ (+ (<50%))”; the “Mitotic inhibition, early (% reduction of normal prophases at the end of treatment)” value is given as “++ (+ + (30-70%))”; the “Mitotic inhibition, late (% reduction of normal prophases 24 h after treatment)” value is given as “+ (+ (< 30%))”. The Solubility in water entry in data set [6] was “High”.
Turning to Chromium sulphate [Chromium alum], the Cell growth in [1] (0.5 mg/ml) is given as 88 % of controls. Further, in data set [2] (0.5 mg/ml), the DNA synthesis is given as 66 % of controls, the Protein synthesis was 96 % of controls and the RNA synthesis is given as 89 % of controls. In [3] (setting [8]), the “DNA synthesis, preinc. in MEM” value was 92 % of controls; the “DNA synthesis, preinc. in MEM+BHK” value is 100 % of controls; the “Protein synthesis, preinc. in MEM” value was 100 % of controls; the “Protein synthesis, preinc. in MEM+BHK” value is given as 100 % of controls. Further, in data set [3] (setting [8]), the “RNA synthesis, preinc. in MEM” value is given as 100 % of controls and the “RNA synthesis, preinc. in MEM+BHK” value is 100 % of controls. The Cell growth in data set [4] (5 µg/ml) is on record as 100 % control. Also, the Cell growth in data set [4] (25 µg/ml) turned out to be 100 % control. For the same compound, the Cell growth in data set [4] (150 µg/ml) is listed as 100 % control. In addition, in [5], the “Mitotic block (% increase of abnormal metaphases 2-4 h after treatment)” value is recorded as “+ (+ (<50%))”; the “Mitotic inhibition, early (% reduction of normal prophases at the end of treatment)” value was “_”; the “Mitotic inhibition, late (% reduction of normal prophases 24 h after treatment)” value was “+ (+ (< 30%))”. Also, the “Frequency of sarcomas at the site of injection” value with rats is on record as 20-25%.
For `O=S(=O)([O-])[O-].O=S(=O)([O-])[O-].O=S(=O)([O-])[O-].[Cr+3].[Cr+3]` [Chromium sulphate], the Cell growth in data set [1] (0.5 mg/ml) is recorded as 68 % of controls. In data set [2] (0.5 mg/ml), the DNA synthesis is given as 45 % of controls, the Protein synthesis is reported as 69 % of controls and the RNA synthesis is listed as 55 % of controls. Also, in [3] (setting [8]), the “DNA synthesis, preinc. in MEM” value is on record as 82 % of controls; the “DNA synthesis, preinc. in MEM+BHK” value was 100 % of controls; the “Protein synthesis, preinc. in MEM” value is reported as 100 % of controls; the “Protein synthesis, preinc. in MEM+BHK” value is 100 % of controls. In addition, in data set [3] (setting [8]), the “RNA synthesis, preinc. in MEM” value is recorded as 87 % of controls and the “RNA synthesis, preinc. in MEM+BHK” value is 100 % of controls. Moreover, in [4] (5 µg/ml), the Cell growth is reported as 100 % control. The Cell growth in data set [4] (25 µg/ml) amounted to 100 % control. The Cell growth in data set [4] (150 µg/ml) is on record as 93 % control. Further, in data set [5], the “Mitotic block (% increase of abnormal metaphases 2-4 h after treatment)” value is recorded as “+ (+ (<50%))”; the “Mitotic inhibition, early (% reduction of normal prophases at the end of treatment)” value is on record as “+ (+ (< 30%))”; the “Mitotic inhibition, late (% reduction of normal prophases 24 h after treatment)” value is on record as “+ (+ (< 30%))”.
Consider `[O]=[Cr](=[O])([O-])[O-].[O]=[Pb].[Pb+2]` [Chromium orange, Basic lead chromate], for which the Cell growth in data set [1] (0.05 mg/ml) is 72 % of controls; in data set [1] (0.15 mg/ml), 41 % of controls; in data set [1] (0.5 mg/ml), 0 % of controls; in [4] (5 µg/ml), 100 % control; in [4] (25 µg/ml), 93 % control; in data set [4] (150 µg/ml) it was 56 % control. For the same compound, the DNA synthesis in [2] (0.05 mg/ml) is reported as 43 % of controls; in [2] (0.15 mg/ml) it was 11 % of controls; in data set [2] (0.5 mg/ml), 0 % of controls. In addition, the Protein synthesis is 92 % of controls in data set [2] (0.05 mg/ml), 75 % of controls in data set [2] (0.15 mg/ml) and 0 % of controls in [2] (0.5 mg/ml). For the same compound, the results for the RNA synthesis in data set [2] (0.05 mg/ml), in data set [2] (0.15 mg/ml) and in data set [2] (0.5 mg/ml) were 84 % of controls, 53 % of controls and 0 % of controls, respectively. In addition, the “DNA synthesis, preinc. in MEM” value in [3] (setting [9]) is 100 % of controls; in data set [3] (setting [10]), 84 % of controls; in data set [3] (setting [11]), 54 % of controls; in data set [3] (setting [12]) it was 47 % of controls; in data set [3] (setting [13]), 21 % of controls; in data set [3] (setting [8]), 62 % of controls. Also, in data set [3] (setting [14]), the “DNA synthesis, preinc. in MEM” value is 100 % of controls. The “DNA synthesis, preinc. in MEM+BHK” value in data set [3] (setting [9]) is 100 % of controls; in data set [3] (setting [10]) it was 95 % of controls; in [3] (setting [11]), 86 % of controls; in [3] (setting [12]) it was 78 % of controls; in [3] (setting [13]), 52 % of controls; in [3] (setting [8]), 100 % of controls. Further, in data set [3] (setting [14]), the “DNA synthesis, preinc. in MEM+BHK” value is listed as 100 % of controls. In addition, the “Protein synthesis, preinc. in MEM” value in [3] (setting [9]) is listed as 100 % of controls; in data set [3] (setting [10]), 100 % of controls; in data set [3] (setting [11]), 92 % of controls; in [3] (setting [12]), 100 % of controls; in [3] (setting [13]), 78 % of controls; in data set [3] (setting [8]), 100 % of controls. Moreover, in data set [3] (setting [14]), the “Protein synthesis, preinc. in MEM” value is reported as 100 % of controls. Further, the “Protein synthesis, preinc. in MEM+BHK” value is recorded as 100 % of controls in data set [3] (setting [9]); 100 % of controls in [3] (setting [10]); 100 % of controls in [3] (setting [11]); 100 % of controls in data set [3] (setting [12]); 92 % of controls in data set [3] (setting [13]); 100 % of controls in data set [3] (setting [8]). Also, in data set [3] (setting [14]), the “Protein synthesis, preinc. in MEM+BHK” value is listed as 100 % of controls. For the same compound, the “RNA synthesis, preinc. in MEM” value is 100 % of controls in [3] (setting [9]); 100 % of controls in [3] (setting [10]); 85 % of controls in data set [3] (setting [11]); 81 % of controls in [3] (setting [12]); 66 % of controls in data set [3] (setting [13]); 93 % of controls in data set [3] (setting [8]). Further, the “RNA synthesis, preinc. in MEM” value in data set [3] (setting [14]) is on record as 100 % of controls. The “RNA synthesis, preinc. in MEM+BHK” value in data set [3] (setting [9]) is reported as 100 % of controls; in [3] (setting [10]), 100 % of controls; in data set [3] (setting [11]), 96 % of controls; in data set [3] (setting [12]), 100 % of controls; in [3] (setting [13]) it was 72 % of controls; in data set [3] (setting [8]) it was 100 % of controls. For the same compound, in data set [3] (setting [14]), the “RNA synthesis, preinc. in MEM+BHK” value is 100 % of controls. For the same compound, the “Mitotic block (% increase of abnormal metaphases 2-4 h after treatment)” value in [5] is reported as “++ (+ + (50-100%))”. Moreover, the “Mitotic inhibition, early (% reduction of normal prophases at the end of treatment)” value in data set [5] is “++ (+ + (30-70%))”. For the same compound, the “Mitotic inhibition, late (% reduction of normal prophases 24 h after treatment)” value in data set [5] is “+++ (+ + + (> 70%))”. Moreover, the “Frequency of sarcomas at the site of injection” value in the data set on rats is reported as 65-90%. In addition, the “Mutagenicity in the plate test” value in the data set with Salmonella was “positive”. Moreover, in the data set on Salmonella, the “Mutagenicity in the spot test” value is reported as “mutagens”. In addition, in data set [6], the Solubility in water result is listed as “Very low”.
For the compound `[O]=[Cr](=[O])([O-])[O-].[Pb+2]` [lead chromate], the “Mutagenicity for bacteria and mammalian cells in culture” value in data set [7] (fine suspension in water, ref Newbold et al.) was “inactive as a mutagen”. Besides, the “Point mutations in bacteria” value in data set [7] (solubilized in acids and alkalis, ref Nestmann et al.) is listed as “induce point mutations”. Also, the “Mutagenicity in the plate test” value with Salmonella is on record as “positive”.
